{
  "source": "patent US7960130B2",
  "about": "“Method for activation of transient receptor potential cation channel, subfamily A, member 1 using acetaldehyde” (Korea University Industry and Academy Cooperation Foundation, priority 2008, dated 2011)",
  "key": {"hTRPA1": {"target": "T1, hTRPA1 (Homo sapiens, UniProt O75762)", "T1 construct": "expressed in transfected cells; host or cells: HEK293T (ATCC CRL-11268), pcDNA3.1", "assay": "Fluo-3 calcium imaging of hTRPA1-transfected HEK293T cells", "format": "cell-based", "description": "(§1) Particularly, the HEK293T cell line was transiently transfected with individual TRP channel plasmid (pcDNA3.1 containing polynucleotide encoding hTRPA1, rTRPV2, rTRPV1 or mTRPV4; pcDNA5/FRT containing polynucleotide encoding mTRPA1, hTRPV3 or mTRPM8) 3 μg per 35-mm dish and 600 ng/well of pcDNA3 (Invitrogen Corp., USA; containing green fluorescent protein (GFP) cDNA) using Fugene6 (Roche Diagnostics, USA) according to manufacturer's instruction. The transformed cells were cultured in DMEM/F12 containing 10% FBS and 1% penicillin/streptomycin in a CO2 incubator for 24 hours. The cells were replated onto poly-L-lysine-coated glass coverslips, followed by further culture for 10-24 hours.\n(§2) Stock solutions were made using water or ethanol, and were diluted with test solutions before use.\n(§3) Calcium imaging was performed with a confocal microscope (LSM5 Pascal, Carl Zeiss, Germany), and time-lapse images (488 nm excitation/514 nm emission) were collected every 3 seconds using Carl Zeiss ratio tool software (Carl Zeiss, Germany).\nas §2"}, "mTRPA1": {"target": "T2, mTRPA1 (Mus musculus, UniProt Q8BLA8)", "T2 construct": "expressed in transfected cells; host or cells: HEK293T (ATCC CRL-11268), pcDNA5/FRT", "assay": "Fluo-3 calcium imaging of mTRPA1-transfected HEK293T cells", "format": "cell-based", "description": "as §1, §3, §2"}, "TRPA1": {"test_system": "TRPA1", "assay": "Whole-cell voltage-clamp recording of TRPA1 transfected cell line", "format": "cell-based", "conditions": "1 mM acetaldehyde, 300 μM cinnamaldehyde, voltage ramp -80 to +80 mV, n=5", "description": "as §1, §2\nThis experiment was repeated 5 times."}, "TRPV1": {"target": "T3, TRPV1 (Rattus norvegicus, UniProt O35433)", "T3 construct": "expressed in transfected cells; host or cells: HEK293T (ATCC CRL-11268), pcDNA3.1", "assay": "Calcium imaging of TRP transfected cell lines treated with acetaldehyde (TRPV1)", "format": "cell-based", "conditions": "1 mM acetaldehyde", "from_the_text": "(§4) HEK293T cell line (ATCC CRL-11268) was transiently transfected with plasmid DNA containing polynucleotide encoding hTRPA1 (SEQ. ID. NO: 1), rTRPV2 (SEQ. ID. NO: 2), rTRPV1 (SEQ. ID. NO: 3), mTRPV4 (SEQ. ID. NO: 4), mTRPA1 (SEQ. ID. NO: 5), hTRPV3 (SEQ. ID. NO: 6) or mTRPM8 (SEQ. ID. NO: 7).\nas §1\n(§5) Particularly, the transfected cell line of Example <4-1> was loaded with Fluo-3AM (5 μM; Sigma Aldrich, USA) in the bath solution (140 mM NaCl, 5 mM KCl, 2 mM CaCl2, 1 mM MgCl2, 10 mM HEPES; adjusted to pH 7.4 with NaOH) containing 0.02% pluronic acid (Invitrogen, USA). […]"}, "TRPV2": {"target": "T4, TRPV2 (Rattus norvegicus, UniProt Q9WUD2, A713V/L151P/T158I)", "T4 construct": "expressed in transfected cells; host or cells: HEK293T (ATCC CRL-11268), pcDNA3.1", "T4 sequence (Q9WUD2 1-761 L151P/T158I/A713V)": "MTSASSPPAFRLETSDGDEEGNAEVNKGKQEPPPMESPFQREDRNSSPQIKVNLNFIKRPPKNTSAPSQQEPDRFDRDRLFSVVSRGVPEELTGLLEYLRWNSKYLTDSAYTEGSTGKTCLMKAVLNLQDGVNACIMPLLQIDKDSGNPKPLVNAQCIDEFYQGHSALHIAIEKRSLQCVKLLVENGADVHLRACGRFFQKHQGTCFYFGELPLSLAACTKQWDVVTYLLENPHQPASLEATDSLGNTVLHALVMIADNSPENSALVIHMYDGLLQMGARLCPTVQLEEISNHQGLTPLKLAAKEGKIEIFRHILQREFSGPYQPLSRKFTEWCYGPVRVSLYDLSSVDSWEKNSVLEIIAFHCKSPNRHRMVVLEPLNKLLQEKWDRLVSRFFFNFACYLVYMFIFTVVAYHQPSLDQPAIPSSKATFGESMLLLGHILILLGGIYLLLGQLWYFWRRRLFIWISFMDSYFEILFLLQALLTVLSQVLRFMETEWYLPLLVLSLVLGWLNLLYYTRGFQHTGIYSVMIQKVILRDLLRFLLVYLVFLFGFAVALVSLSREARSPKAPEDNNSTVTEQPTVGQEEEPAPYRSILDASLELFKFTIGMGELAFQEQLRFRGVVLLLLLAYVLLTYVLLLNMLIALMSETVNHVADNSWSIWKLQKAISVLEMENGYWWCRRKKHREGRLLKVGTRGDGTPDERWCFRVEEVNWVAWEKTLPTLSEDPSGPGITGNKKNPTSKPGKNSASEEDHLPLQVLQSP", "assay": "Calcium imaging of TRP transfected cell lines treated with acetaldehyde (TRPV2)", "format": "cell-based", "conditions": "1 mM acetaldehyde", "from_the_text": "as §4, §1, §5"}, "trigeminal neurons": {"test_system": "trigeminal neurons", "assay": "Whole-cell voltage-clamp recording of cultured trigeminal neurons", "format": "cell-based, mouse", "conditions": "1 mM acetaldehyde, n=6", "description": "Trigeminal ganglia were dissected out of decapitated adult ICR mice in cold PBS and treated with 1.5 mg/Ml of collagenase/dispase (Roche Diagnostics, USA) at 37 °C for 45 min, and then treated with 0.25% trypsin (Invitrogen, USA) for 15 min. The trigeminal neurons prepared thereby were then plated onto poly-L-lysine-coated coverslips in DMEM/F12 containing 10% FBS, 1% penicillin/streptomycin and 5 ng/Ml of 2.5S NGF (Invitrogen, USA), nerve growth factor (Invitrogen), followed by culture in a CO2 incubator for 48-72 hours.\nParticularly, the extracellular solution (140 mM NaCl, 5 mM KCl, 2 mM CaCl2, 1 mM MgCl2, 10 mM HEPES; titrated to pH 7.4 with NaOH) and the pipette solution (140 mM CsCl, 5 mM EGTA, 10 mM HEPES, 2.0 mM MgATP, 0.2 mM NaGTP; titrated to pH 7.2 with CsOH) were used. The potential was holded at −60 mV for 250 ms, voltage-ramp pulsed from −80 mV to +80 mV for […] and returned to −60 mV for 250 ms, which was repeated without intersweep. This experiment was repeated 5 times.\nThe trigeminal neurons prepared by the same manner as described in Example 2 were delayed-treated with 1 mM acetaldehyde, followed by treatment of 20 μM GdCl3 (a TRPA1 blocker gadolinium; Sigma-Aldrich, USA) and 2 mM camphor. Then, whole-cell voltage-clamp recording was performed by the same manner as described in Example <5-2>."}, "[1]": {"conditions": "acetaldehyde 1 to 10^4 μM, Fluo-3 calcium imaging"}},
  "note": "Entries after “also recorded” stand apart in the source; their conditions may differ.",
  "data": [
    {"smiles": "CC=O", "note": "[acetaldehyde]", "values": [
      {"measurement": "EC50", "setting": "hTRPA1", "value": 76.5, "unit": "µM"},
      {"measurement": "elevation of intracellular calcium levels in hTRPA1-expressing cells", "setting": "hTRPA1; 1 mM acetaldehyde, 300 μM cinnamaldehyde, 10 mM acetic acid, 1% methanol, 1% ethanol", "value": "TRPA1-specific responses; also recorded: responded"},
      {"measurement": "n of dose-response curve (Hill plot) on hTRPA1", "setting": "hTRPA1; [1]", "value": 2.4},
      {"measurement": "EC50", "setting": "mTRPA1", "value": 1190, "unit": "µM"},
      {"measurement": "n of dose-response curve (Hill plot) on mTRPA1", "setting": "mTRPA1; [1]", "value": 3.1},
      {"measurement": "maximum efficacy in mTRPA1 responses compared with hTRPA1", "setting": "mTRPA1; dose-response, calcium imaging", "value": "greater maximum efficacy"},
      {"measurement": "whole-cell current response in TRPA1 expressing cells", "setting": "TRPA1", "value": "pronounced outwardly rectifying current occurred"},
      {"measurement": "activation of TRPV1 by acetaldehyde", "setting": "TRPV1", "value": "only TRPA1 was activated"},
      {"measurement": "activation of TRPV2 by acetaldehyde", "setting": "TRPV2", "value": "only TRPA1 was activated"},
      {"measurement": "current increase in trigeminal neurons", "setting": "trigeminal neurons", "value": "increased current"}
    ]}
  ]
}
